Measurements published in patent publication US20260272797A1, “FRAGRANCE COMPOSITION” (GIVAUDAN SA, priority 2023, published 2026).

How the values were obtained:
[1] = Gas-phase evaluation of each fragrance ingredient alone against model scalp malodour, MiniVAS device, panel of 5 experts; settings: for Scalp MOC of ingredient alone: expert description
Experimental: In a first set of experiments, the scalp malodour counteractancy of 173 fragrance ingredients was evaluated by panel of 5 experts.
The evaluation was performed in the gas phase, using a MiniVAS™ device (ex Givaudan SA). This device is a regulating means that comprises a plurality of channels adapted to convey a gas (more particularly air) through cartridges, each cartridge containing a fragrance ingredient adsorbed onto an adsorbent. The air flows coming from the different cartridges are admixed and conveyed to the user's nose through a tubing fitted with an olfactometer funnel. Thus, by opening and closing channels and maintaining these opened and closed, respectively, for predetermined times, the regulating means can determine which fragrance ingredients and how much thereof are conveyed and when, and thus alter the nature of the fragrance perceived by the user. A description of the device can be found in WO2014154909A1, page 2, line 11 to page 4, line 7, and in H. R. Gygax et al. “Evolution of Real Time Aroma Creation at Givaudan”, poster presented at the 12th Weurman Flavour Research Symposium. July 2008. Interlaken, Switzerland; DOI: 10.13140/2.1.1924.0641.
For the sake of the present evaluation, one cartridge contained the scalp malodour (in the form of a model malodour) and each fragrance ingredient was assigned to another cartridge. The malodour counteractancy of each fragrance ingredient was evaluated separately against the scalp malodour. A constant air flow rate of 50 ml/min was used for all measurements. The perceived malodour intensity, as well as the fragrance intensity, were ranked on a scale of 1-5 (1=barely noticeable, 2=weak, 3=medium, 4=strong and 5=very strong).

[2] = Impact of fragrance ingredients on scalp malodour counteractancy of 80 fragrance compositions (Example 2 protocol, statistical presence); settings: series of 80 fragrance compositions
Experimental: In a second set of experiments, the impact of these fragrance ingredients on the scalp malodour counteractancy of a fragrance composition was assessed. The scalp malodour counteractancy of a series of 80 fragrance compositions was assessed by performing the evaluation protocol described in Example 2. […] Ingredients that were statistically more present in fragrances having a high malodour counteractancy were assigned a positive status, whereas ingredients that were statistically more present in compositions having a low malodour counteractancy were assigned a negative status.

[3] = Table 3, air flow 50 ml/min, scale of 1-5 (1=barely noticeable, 5=very strong)
[4] = Table 4, air flow 50 ml/min, scale of 1-5

Compound	MO intensity [1, 3]	Scalp MOC of ingredient alone ([1]; Table 3, gas phase)	Impact on scalp MOC of fragrance composition ([2]; Table 3)	MO intensity [1, 4]	Impact on scalp MOC of fragrance composition ([2]; Table 4)	Scalp MOC of ingredient alone ([1]; Table 4, gas phase)
CC(=O)C1(C)CC2=C(CCCC2(C)C)CC1C (stereo not shown) [1-(2,3,8,8-tetramethyl-1,2,3,4,5,6,7,8-octahydronaphthalen-2-yl)ethanone]	1	No effect	Positive			
CC(=O)c1ccc2ccccc2c1 [1-(2-naphtalenyl)-ethanone]				1	Negative	
CC(=O)c1cc2c(cc1C)C(C)(C)C(C)CC2(C)C (stereo not shown) [1-(3,5,5,6,8,8-hexamethyl-5,6,7,8-tetrahydronaphthalen-2-yl)ethanone]	3		Positive			
CC(=O)C1=C(C)C2C[C@@]3(C1)C(CC[C@@H]3C)C2(C)C (stereo partly drawn) [1-((1S,8aS)-1,4,4,6-tetramethyl-2,3,3a,4,5,8-hexahydro-1H-5,8a-methanoazulen-7-yl)ethanone]				1	Negative	
CCC(O)COC1CCCCC1C(C)(C)C (stereo not shown) [1-((2-(tert-butyl)cyclohexyl)oxy)butan-2-ol]	2.3	Coverage	Positive			
CC(=O)C1CC/C=C\C(C)C(C)/C=C\C/C=C/1C (stereo not shown) [1-((2E,5Z,9Z)-2,7,8-trimethylcyclododeca-2,5,9-trien-1-yl)ethanone]	1	No effect	Positive			
CCCCOC(=O)C(C)OC(=O)CCC (stereo not shown) [1-butoxy-1-oxopropan-2-yl butanoate]	1	No effect	Positive			
CC(C)=CCC(C)C1CC1(C)CO (stereo not shown) [1-methyl-2-(5-methylhex-4-en-2-yl)cyclopropylmethanol]	2.7		Positive			
CC1(CO)CC1CC1CC2CC2(C)C1(C)C (stereo not shown) [1-methyl-2-((1,2,2-trimethylbicyclo[3.1.0]hexan-3-yl)methyl)cyclopropyl)methanol]	3.3		Positive			
CC(=O)c1ccccc1 [1-phenylethanone]	5		Positive			
c1ccc2[nH]ccc2c1 [1H-indole]	4		Positive			
CCCCCC1(C)CCC(C)(C)C1=O (stereo not shown) [2,2,5-trimethyl-5-pentylcyclopentanone]	3.5		Positive			
CC1CC(C)(c2ccccc2)OC(C)O1 (stereo not shown) [2,4,6-trimethyl-4-phenyl-1,3-dioxane]				1	Negative	
CC1CC(C)(c2ccccc2)CO1 (stereo not shown) [2,4-dimethyl-4-phenyltetrahydrofuran]				4.1	Negative	
CC1=CC(C)C(C=O)CC1 (stereo not shown) [2,4-dimethylcyclohex-3-ene-1-carbaldehyde]				1	Negative	
CC1=CC(C)C(C=O)CC1 (stereo not shown) [2,4-dimethylcyclohex-3-enecarbaldehyde]				3.8		Good coverage
Cc1ncsc1CCO [2-(4-Methyl-1,3-thiazol-5-yl)ethanoL]	1	No effect	Positive			
CC(=O)OCCC1=CCC2CC1C2(C)C (stereo not shown) [2-(6,6-dimethylbicyclo[3.1.1]hept-2-en-2-yl)ethyl acetate]	2		Positive			
CC(C)C(=O)OCCOc1ccccc1 [2-(phenoxy)ethyl 2-methylpropanoate]				2.3	Negative	
CC(=O)OC1CCCCC1C(C)(C)C (stereo not shown) [2-(tert-butyl)cyclohexyl acetate]	2		Positive			
N#CC(=C1CCCCC1)c1ccccc1 [2-cyclohexylidene-2-phenylacetonitrile]				1	Negative	
CCOc1cc(C)ccc1O [2-ethoxy-4-methylphenol]	2.8		Positive			
CCC1OC(C)=C(O)C1=O (stereo not shown) [2-ethyl-4-hydroxy-5-methylfuran-3(2H)-one]				4.5	Negative	
CC1CCC(C(C)C)C(O)C1 (stereo not shown) [2-isopropyl-5-methylcyclohexanol]	1.2		Positive			
CCCc1ccc(O)c(OC)c1 [2-methoxy-4-propylphenol]	2		Positive			

Compound	MO intensity [1, 3]	Scalp MOC of ingredient alone ([1]; Table 3, gas phase)	Impact on scalp MOC of fragrance composition ([2]; Table 3)	MO intensity [1, 4]	Impact on scalp MOC of fragrance composition ([2]; Table 4)	Scalp MOC of ingredient alone ([1]; Table 4, gas phase)
CC(C)(O)Cc1ccccc1 [2-methyl-1-phenylpropan-2-ol]				1	Negative	
CCCC(=O)OC(C)(C)Cc1ccccc1 [2-methyl-1-phenylpropan-2-yl butanoate]				3	Negative	
CCCC1CCOC(C)S1 (stereo not shown) [2-methyl-4-propyl-1,3-oxathiane]				1	Negative	
CCCCCCCCCC(C)C=O (stereo not shown) [2-methylundecanal]	3.5		Positive			
OCCc1ccccc1 [2-phenylethanol]				3.2	Negative	
CC(=O)OCCc1ccccc1 [2-phenylethyl acetate]				1	Negative	
CC(C)=CCCC(C)CCO (stereo not shown) [3,7-dimethyloct-6-en-1-ol]	2.5		Positive			
CC(=O)OCCC(C)CCC=C(C)C (stereo not shown) [3,7-dimethyloct-6-en-1-yl acetate]				2	Negative	Low coverage
CC(C)=CCCC(C)CC=O (stereo not shown) [3,7-dimethyloct-6-enal]	3		Positive			
CC(C)CCCC(C)CCO (stereo not shown) [3,7-dimethyloctan-1-ol]	4.3		Positive			
CCC(C)(O)CCCC(C)C (stereo not shown) [3,7-dimethyloctan-3-ol]				3	Negative	
CC(CCO)CCCC(C)(C)O (stereo not shown) [3,7-dimethyloctane-1,7-diol]	1	No effect	Positive			
Cc1cc(CC(C)C)ccc1CCC=O [3-(4-(2-methylpropyl)-2-methylphenyl)propanal]	2.8		Positive			
CC(C=O)Cc1ccc(C(C)(C)C)cc1 (stereo not shown) [3-(4-(tert-butyl)phenyl)-2-methylpropanal]	2.8		Positive			
COc1ccc(CC(C)C=O)cc1 (stereo not shown) [3-(4-methoxyphenyl)-2-methylpropanal]	1	No effect	Positive			
CCCCC1COCC(C)C1OC(C)=O (stereo not shown) [3-butyl-5-methyltetrahydro-2H-pyran-4-yl acetate]				1	Negative	
Cc1occc(=O)c1O [3-hydroxy-2-methyl-4H-pyran-4-one]	4		Positive			
CC(=O)C(C)O (stereo not shown) [3-hydroxybutan-2-one]	4		Positive			
CC(CCO)CCc1ccccc1 (stereo not shown) [3-methyl-5-phenylpentan-1-ol]	2		Positive			
CC1COCc2cc3c(cc21)C(C)(C)C(C)C3(C)C (stereo not shown) [4,6,6,7,8,8-hexamethyl-1,3,4,6,7,8-hexahydrocyclopenta[g]isochromene]	3		Positive			
CCC(=O)C(C)CC=C(C)C (stereo not shown) [4,7-dimethyloct-6-en-3-one]				4	Negative	
CC(=O)CCC1=C(C)CCCC1(C)C [4-(2,6,6-trimethylcyclohex-1-en-1-yl)butan-2-one]				1	Negative	
CC(C)=CCCC1=CCC(C=O)CC1 (stereo not shown) [4-(4-methylpent-3-en-1-yl)cyclohex-3-enecarbaldehyde]				1	Negative	
C=CCc1ccc(O)c(OC)c1 [4-allyl-2-methoxyphenol]	4		Positive			
